Target: HIV IN (Human immunodeficiency virus type 1 group M subtype B, UniProt P04585)
Test: HIV IN 3′ processing
Format: biochemical

Row | Structure (SMILES) | IC50 [µM]
1 | CNC(=O)c1nc(C)n(Cc2ccc(F)cc2)c(=O)c1O [compound 6] | > 333
2 | CNC(=O)c1nc(Cc2ccc(F)cc2)[nH]c(=O)c1O [compound 7] | > 333
3 | COCCNC(=O)c1nc(Cc2ccc(F)cc2)[nH]c(=O)c1O [compound 8] | > 333
4 | CN(C)CCCNC(=O)c1nc(Cc2ccc(F)cc2)[nH]c(=O)c1O [compound 9] | > 333
5 | O=C(O)c1nc(Cc2ccc(F)cc2)[nH]c(=O)c1O [compound 10] | > 333
6 | CNC(=O)c1nc(Cc2ccc(F)cc2)n(C)c(=O)c1O [compound 11] | > 333

— article PMC7323870 (Bioorganic & medicinal chemistry letters, 2010)
